Experimental data reported in patent publication US20080009418A1, “Selective Inhibitors” (Alchemia LTD., priority 2004, published 2008).

How the values were obtained:
Human κ-Opioid (KOP) = molecular target: T1, Human κ-Opioid (KOP) (Homo sapiens, UniProt P41145); test: Radioligand binding, human κ-opioid (KOP) membranes, filtration, [3H]-Diprenorphine; conditions: compound at 10 μM, [3H]-Diprenorphine
T1 construct: purchased Perkin Elmer Biosignal
Method in brief: (§1)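 Membranes from cloned human receptors were incubated with compound and radioligand for 1 hour at room temperature. Bound ligand was collected on 0.3% PEI-soaked filters, washed with cold 50 mM Tris-HCl pH 7.4, and counted by scintillation. Percent inhibition was computed against DMSO totals and reference-ligand nonspecific wells.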

Human Melanocortin (MC3) = molecular target: T2, Human Melanocortin (MC3) (Homo sapiens, UniProt P41968); test: Radioligand binding, human melanocortin MC3 membranes, FlashPlate, [125I]-NDP-αMSH; conditions: compound at 10 μM, [125I]-NDP-αMSH
T2 construct: purchased Perkin Elmer Biosignal
Method in brief: (§2)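 Cloned human receptor membranes were coated onto FlashPlate wells and incubated with radioligand and compound (added from a 0.5 mM DMSO daughter plate) for 1 hour at room temperature in the dark. Scintillation counting gave percent inhibition, with DMSO defining total and reference ligand defining non-specific binding.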

Human neurokinin (NK1) = molecular target: T3, Human neurokinin (NK1) (Homo sapiens, UniProt P25103); test: Radioligand binding, human neurokinin NK1 membranes, filtration, [125I]-Substance P; conditions: compound at 10 μM, [125I]-Substance P
T3 construct: purchased Perkin Elmer Biosignal
Method in brief: as §1

Human δ-opioid (DOP) = molecular target: T4, Human δ-opioid (DOP) (Homo sapiens, UniProt P41143); test: Radioligand binding, human δ-opioid (DOP) membranes, FlashPlate, [3H]-Bremazocine; conditions: compound at 10 μM, [3H]-Bremazocine
T4 construct: purchased Perkin Elmer Biosignal
Method in brief: as §2

Human melanocortin (MC5) = molecular target: T5, Human melanocortin (MC5) (Homo sapiens, UniProt P33032); test: Radioligand binding, human melanocortin MC5 membranes, FlashPlate, [125I]-NDP-αMSH; conditions: compound at 10 μM, [125I]-NDP-αMSH
T5 construct: purchased Perkin Elmer Biosignal
Method in brief: as §2

[1] = molecular target: T6, Human neuropeptide Y (NPY-Y1) (Homo sapiens, UniProt P25929); test: Radioligand binding, human neuropeptide Y NPY-Y1 membranes, FlashPlate, [125I]-PYY; conditions: compound at 10 μM, [125I]-PYY
T6 construct: purchased Perkin Elmer Biosignal
T6 sequence (P25929 1-384): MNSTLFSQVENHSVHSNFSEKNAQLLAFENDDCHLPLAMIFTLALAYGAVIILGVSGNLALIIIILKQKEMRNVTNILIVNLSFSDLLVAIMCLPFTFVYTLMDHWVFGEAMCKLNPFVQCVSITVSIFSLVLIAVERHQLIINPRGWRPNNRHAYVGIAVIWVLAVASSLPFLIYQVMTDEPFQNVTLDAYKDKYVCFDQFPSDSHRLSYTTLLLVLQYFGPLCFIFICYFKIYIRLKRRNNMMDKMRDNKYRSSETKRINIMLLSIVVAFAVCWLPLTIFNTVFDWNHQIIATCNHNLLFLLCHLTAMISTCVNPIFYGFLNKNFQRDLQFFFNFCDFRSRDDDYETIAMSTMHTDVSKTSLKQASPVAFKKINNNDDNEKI
Method in brief: as §2

Mouse urotensin (mUR2) = molecular target: T7, Mouse urotensin (mUR2) (Mus musculus, UniProt Q8VIH9); test: Radioligand binding, mouse urotensin mUR2 membranes, FlashPlate, [125I]-Urotensin II; conditions: compound at 10 μM, [125I]-Urotensin II
T7 construct: purchased Perkin Elmer Biosignal
T7 sequence (Q8VIH9 1-385): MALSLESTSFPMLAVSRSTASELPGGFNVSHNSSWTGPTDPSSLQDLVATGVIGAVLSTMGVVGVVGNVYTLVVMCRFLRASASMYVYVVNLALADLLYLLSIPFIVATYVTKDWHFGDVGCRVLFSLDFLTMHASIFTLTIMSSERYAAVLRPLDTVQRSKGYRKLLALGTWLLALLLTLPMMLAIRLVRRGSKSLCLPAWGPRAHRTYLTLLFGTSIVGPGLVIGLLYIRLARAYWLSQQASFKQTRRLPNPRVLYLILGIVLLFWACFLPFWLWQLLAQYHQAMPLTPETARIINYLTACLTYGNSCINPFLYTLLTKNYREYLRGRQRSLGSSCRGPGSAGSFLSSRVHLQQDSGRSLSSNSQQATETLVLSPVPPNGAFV
Method in brief: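 Cloned mouse urotensin (mUR2) receptor membranes from Perkin Elmer Biosignal were immobilized in FlashPlate microplates using a proprietary coating. Each well got 19.5 μl buffer, then 0.5 μl of DMSO, reference ligand, or compound. Adding 5 μl of [125I]-Urotensin II, diluted to 5× final concentration in binding buffer, started binding. Plates were sealed with TopSeal-A and incubated 1 hour at room temperature in the dark. Wells were counted for 30 seconds each on a TopCount after a 60-second delay, and percentage inhibition was calculated.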

Human μ-opioid (MOP) = molecular target: T8, Human μ-opioid (MOP) (Homo sapiens, UniProt P35372); test: Radioligand binding, human μ-opioid (MOP) membranes, FlashPlate, [3H]-Naloxone; conditions: compound at 10 μM, [3H]-Naloxone
T8 construct: purchased Perkin Elmer Biosignal
Method in brief: as §2

Human Melanocortin (MC4) = molecular target: T9, Human Melanocortin (MC4) (Homo sapiens, UniProt P32245); test: Radioligand binding, human melanocortin MC4 membranes, FlashPlate, [125I]-NDP-αMSH; conditions: compound at 10 μM, [125I]-NDP-αMSH
T9 construct: purchased Perkin Elmer Biosignal
Method in brief: as §2

Human opioid (ORL1) = molecular target: T10, Human opioid (ORL1) (Homo sapiens, UniProt P41146); test: Radioligand binding, human opioid ORL1 membranes, FlashPlate, [125I]-Nociceptin; conditions: compound at 10 μM, [125I]-Nociceptin
T10 construct: purchased Perkin Elmer Biosignal
Method in brief: as §2

[2] = molecular target: T11, Human melanin-concentrating hormone (MCH1) (Homo sapiens, UniProt Q99705); test: Radioligand binding, human melanin-concentrating hormone MCH1 membranes, FlashPlate, [125I]-S36057; conditions: compound at 10 μM; for A6: inhibition of radioligand binding, human melanin-concentrating hormone (MCH1): [125I]-S36057
T11 construct: purchased Perkin Elmer Biosignal
Method in brief: as §2

T8 sequence (P35372 whole entry): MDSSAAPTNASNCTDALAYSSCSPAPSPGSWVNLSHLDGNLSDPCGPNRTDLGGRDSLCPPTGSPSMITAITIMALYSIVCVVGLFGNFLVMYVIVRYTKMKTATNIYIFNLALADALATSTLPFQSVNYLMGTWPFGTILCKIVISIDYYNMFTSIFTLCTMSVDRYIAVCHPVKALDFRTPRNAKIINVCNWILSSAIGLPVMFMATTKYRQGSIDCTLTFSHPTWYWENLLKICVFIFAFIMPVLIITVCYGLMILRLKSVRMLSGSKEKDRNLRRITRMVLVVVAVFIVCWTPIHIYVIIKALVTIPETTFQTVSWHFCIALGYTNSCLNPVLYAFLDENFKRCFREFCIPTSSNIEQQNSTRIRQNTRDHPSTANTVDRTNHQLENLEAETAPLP
T9 sequence (P32245 whole entry): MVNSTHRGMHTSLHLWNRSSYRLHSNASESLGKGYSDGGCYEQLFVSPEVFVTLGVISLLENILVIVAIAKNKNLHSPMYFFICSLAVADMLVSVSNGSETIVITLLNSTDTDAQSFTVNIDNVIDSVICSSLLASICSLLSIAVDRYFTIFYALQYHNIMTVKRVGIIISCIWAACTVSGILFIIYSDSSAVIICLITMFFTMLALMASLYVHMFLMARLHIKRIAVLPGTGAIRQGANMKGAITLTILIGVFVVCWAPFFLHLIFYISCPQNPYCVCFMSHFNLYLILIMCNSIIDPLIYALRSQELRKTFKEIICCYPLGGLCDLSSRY
T3 sequence (P25103 whole entry): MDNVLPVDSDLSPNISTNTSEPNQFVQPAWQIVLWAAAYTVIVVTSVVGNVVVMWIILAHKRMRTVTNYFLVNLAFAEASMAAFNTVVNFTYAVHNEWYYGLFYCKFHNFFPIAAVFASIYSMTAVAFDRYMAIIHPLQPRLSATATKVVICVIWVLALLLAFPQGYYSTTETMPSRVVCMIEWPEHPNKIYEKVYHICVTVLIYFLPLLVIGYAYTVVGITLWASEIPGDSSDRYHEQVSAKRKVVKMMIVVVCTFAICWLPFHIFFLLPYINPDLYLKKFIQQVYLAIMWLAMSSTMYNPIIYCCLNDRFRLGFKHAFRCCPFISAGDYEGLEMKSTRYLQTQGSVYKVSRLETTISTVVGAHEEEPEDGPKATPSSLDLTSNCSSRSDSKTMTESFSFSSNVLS
T1 sequence (P41145 whole entry): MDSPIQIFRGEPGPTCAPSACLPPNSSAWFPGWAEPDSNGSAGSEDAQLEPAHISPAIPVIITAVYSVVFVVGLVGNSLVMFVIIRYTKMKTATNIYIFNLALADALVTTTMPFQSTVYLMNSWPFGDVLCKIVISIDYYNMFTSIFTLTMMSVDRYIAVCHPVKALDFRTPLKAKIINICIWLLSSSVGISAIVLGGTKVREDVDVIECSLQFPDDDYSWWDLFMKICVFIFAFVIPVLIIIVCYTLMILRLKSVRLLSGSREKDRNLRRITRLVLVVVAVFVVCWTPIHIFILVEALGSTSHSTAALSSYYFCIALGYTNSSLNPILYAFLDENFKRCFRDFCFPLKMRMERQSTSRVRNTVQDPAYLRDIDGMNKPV
T10 sequence (P41146 whole entry): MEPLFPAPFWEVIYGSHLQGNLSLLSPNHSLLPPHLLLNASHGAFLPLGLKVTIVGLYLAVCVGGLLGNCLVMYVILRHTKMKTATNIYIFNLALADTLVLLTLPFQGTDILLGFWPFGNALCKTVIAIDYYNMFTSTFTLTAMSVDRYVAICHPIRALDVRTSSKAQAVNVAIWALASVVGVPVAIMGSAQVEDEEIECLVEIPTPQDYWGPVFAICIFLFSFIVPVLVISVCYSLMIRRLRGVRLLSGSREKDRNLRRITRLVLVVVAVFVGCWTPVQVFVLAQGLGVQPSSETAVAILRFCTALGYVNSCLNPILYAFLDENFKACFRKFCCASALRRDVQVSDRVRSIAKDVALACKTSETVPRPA
T4 sequence (P41143 whole entry): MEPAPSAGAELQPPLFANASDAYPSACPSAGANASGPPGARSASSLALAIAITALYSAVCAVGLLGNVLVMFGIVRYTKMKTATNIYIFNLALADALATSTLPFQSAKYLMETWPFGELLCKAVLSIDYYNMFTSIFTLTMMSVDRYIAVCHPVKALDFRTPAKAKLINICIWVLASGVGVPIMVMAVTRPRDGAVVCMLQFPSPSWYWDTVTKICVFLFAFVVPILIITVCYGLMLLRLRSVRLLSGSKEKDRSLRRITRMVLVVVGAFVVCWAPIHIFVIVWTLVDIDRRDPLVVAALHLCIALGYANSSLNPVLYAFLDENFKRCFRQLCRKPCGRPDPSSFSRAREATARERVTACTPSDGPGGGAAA
T11 sequence (Q99705 whole entry): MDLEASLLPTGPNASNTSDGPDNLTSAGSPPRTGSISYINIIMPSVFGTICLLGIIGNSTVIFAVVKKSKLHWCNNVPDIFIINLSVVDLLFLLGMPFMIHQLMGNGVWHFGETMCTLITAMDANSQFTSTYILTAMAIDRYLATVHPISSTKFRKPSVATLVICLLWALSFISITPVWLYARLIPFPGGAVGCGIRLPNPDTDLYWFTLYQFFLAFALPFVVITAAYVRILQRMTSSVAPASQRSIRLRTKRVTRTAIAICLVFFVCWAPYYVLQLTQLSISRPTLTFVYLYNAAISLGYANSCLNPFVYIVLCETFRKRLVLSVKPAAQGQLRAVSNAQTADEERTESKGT
T5 sequence (P33032 whole entry): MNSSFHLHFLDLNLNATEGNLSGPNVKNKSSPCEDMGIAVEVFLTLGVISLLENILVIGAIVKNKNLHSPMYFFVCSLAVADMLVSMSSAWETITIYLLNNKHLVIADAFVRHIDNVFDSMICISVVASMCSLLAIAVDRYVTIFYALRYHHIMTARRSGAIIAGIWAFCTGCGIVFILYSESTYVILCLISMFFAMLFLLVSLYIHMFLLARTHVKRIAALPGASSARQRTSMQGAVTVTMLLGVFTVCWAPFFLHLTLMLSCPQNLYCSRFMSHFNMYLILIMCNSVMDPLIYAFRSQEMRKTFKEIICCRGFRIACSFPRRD
T2 sequence (P41968 whole entry): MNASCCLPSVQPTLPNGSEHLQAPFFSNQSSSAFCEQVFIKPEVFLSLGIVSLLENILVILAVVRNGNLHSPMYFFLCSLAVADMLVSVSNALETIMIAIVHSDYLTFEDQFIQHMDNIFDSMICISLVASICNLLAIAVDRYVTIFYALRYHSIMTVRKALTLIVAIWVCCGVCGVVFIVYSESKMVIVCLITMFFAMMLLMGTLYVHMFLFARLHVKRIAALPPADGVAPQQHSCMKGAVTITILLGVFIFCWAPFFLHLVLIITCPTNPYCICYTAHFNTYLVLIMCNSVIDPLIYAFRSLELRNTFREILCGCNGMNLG

| Compound | A2: inhibition of radioligand binding, human κ-opioid (KOP) (Human κ-Opioid (KOP)) | A3: inhibition of radioligand binding, human melanocortin (MC3) (Human Melanocortin (MC3)) | A8: inhibition of radioligand binding, human neurokinin (NK1) (Human neurokinin (NK1)) | A1: inhibition of radioligand binding, human δ-opioid (DOP) (Human δ-opioid (DOP)) | A5: inhibition of radioligand binding, human melanocortin (MC5) (Human melanocortin (MC5)) | A9: inhibition of radioligand binding, human neuropeptide Y (NPY-Y1) [1] | A11: inhibition of radioligand binding, mouse urotensin (mUR2) (Mouse urotensin (mUR2)) | A7: inhibition of radioligand binding, human μ-opioid (MOP) (Human μ-opioid (MOP)) | A4: inhibition of radioligand binding, human melanocortin (MC4) (Human Melanocortin (MC4)) | A10: inhibition of radioligand binding, human opioid (ORL1) (Human opioid (ORL1)) | A6: inhibition of radioligand binding, human melanin-concentrating hormone (MCH1) [2] | A2: inhibition of radioligand binding (Human κ-Opioid (KOP); filtration) | A3: inhibition of radioligand binding (Human Melanocortin (MC3); FlashPlate) | A8: inhibition of radioligand binding (Human neurokinin (NK1); filtration) | A1: inhibition of radioligand binding (Human δ-opioid (DOP); FlashPlate) | A5: inhibition of radioligand binding (Human melanocortin (MC5); FlashPlate) | A9: inhibition of radioligand binding ([1]; FlashPlate) | A11: inhibition of radioligand binding (Mouse urotensin (mUR2); FlashPlate) | A7: inhibition of radioligand binding (Human μ-opioid (MOP); FlashPlate) | A4: inhibition of radioligand binding (Human Melanocortin (MC4); FlashPlate) | further results |
| --- | --- | --- | --- | --- | --- | --- | --- | --- | --- | --- | --- | --- | --- | --- | --- | --- | --- | --- | --- | --- | --- |
| CSC1OC(COCc2ccc(Cl)cc2)C(O)C(OCc2ccc3ccccc3c2)C1NC(=O)CCNC(=N)N (stereo not shown) [compound 309] | − (“−” indicates less than 50% inhibition at 10 μM) | − (“−” indicates less than 50% inhibition at 10 μM) | + (“+” indicates greater than 50% inhibition at 10 μM) | − (“−” indicates less than 50% inhibition at 10 μM) | + (“+” indicates greater than 50% inhibition at 10 μM) | − (“−” indicates less than 50% inhibition at 10 μM) | − (“−” indicates less than 50% inhibition at 10 μM) | − (“−” indicates less than 50% inhibition at 10 μM) | − (“−” indicates less than 50% inhibition at 10 μM) | − (“−” indicates less than 50% inhibition at 10 μM) | − (“−” indicates less than 50% inhibition at 10 μM) | – | – | – | – | – | – | – | – | – | – |
| NCCCC(=O)NC1C(OCc2ccccc2)OC(COCc2ccccc2)C(O)C1OCc1ccc2ccccc2c1 (stereo not shown) [compound 376] | − (“−” indicates less than 50% inhibition at 10 μM) | − (“−” indicates less than 50% inhibition at 10 μM) | + (“+” indicates greater than 50% inhibition at 10 μM) | − (“−” indicates less than 50% inhibition at 10 μM) | + (“+” indicates greater than 50% inhibition at 10 μM) | − (“−” indicates less than 50% inhibition at 10 μM) | − (“−” indicates less than 50% inhibition at 10 μM) | − (“−” indicates less than 50% inhibition at 10 μM) | + (“+” indicates greater than 50% inhibition at 10 μM) | − (“−” indicates less than 50% inhibition at 10 μM) | − (“−” indicates less than 50% inhibition at 10 μM) | – | – | – | – | – | – | – | – | – | – |
| COCC1OC(OCCc2ccccc2)C(NC(=O)CN)C(OCc2ccc3ccccc3c2)C1O (stereo not shown) [compound 225] | – | – | – | – | – | – | – | – | – | – | – | − (“−” indicates less than 50% inhibition at 10 μM) | − (“−” indicates less than 50% inhibition at 10 μM) | + (“+” indicates greater than 50% inhibition at 10 μM) | − (“−” indicates less than 50% inhibition at 10 μM) | − (“−” indicates less than 50% inhibition at 10 μM) | − (“−” indicates less than 50% inhibition at 10 μM) | − (“−” indicates less than 50% inhibition at 10 μM) | − (“−” indicates less than 50% inhibition at 10 μM) | − (“−” indicates less than 50% inhibition at 10 μM) | A10: inhibition of radioligand binding (Human opioid (ORL1); FlashPlate): − (“−” indicates less than 50% inhibition at 10 μM); A6: inhibition of radioligand binding ([2]; [125I]-S36057, FlashPlate): − (“−” indicates less than 50% inhibition at 10 μM) |
| NCCC(=O)NC1C(OCc2ccc3ccccc3c2)OC(COCc2ccccc2)C(O)C1OCc1ccccc1 (stereo not shown) [compound 388] | – | – | – | – | – | – | – | – | – | – | – | – | – | – | – | – | – | – | – | – | A2: inhibition of radioligand binding (Human κ-Opioid (KOP); human KOP membranes): − (“−” indicates less than 50% inhibition at 10 μM); A3: inhibition of radioligand binding (Human Melanocortin (MC3); human MC3 membranes): − (“−” indicates less than 50% inhibition at 10 μM); A8: inhibition of radioligand binding (Human neurokinin (NK1); human NK1 membranes): + (“+” indicates greater than 50% inhibition at 10 μM); A1: inhibition of radioligand binding (Human δ-opioid (DOP); human DOP membranes): − (“−” indicates less than 50% inhibition at 10 μM); A5: inhibition of radioligand binding (Human melanocortin (MC5); human MC5 membranes, 10 µM): + (“+” indicates greater than 50% inhibition at 10 μM); A9: inhibition of radioligand binding ([1]; human NPY-Y1 membranes): − (“−” indicates less than 50% inhibition at 10 μM); A11: inhibition of radioligand binding (Mouse urotensin (mUR2); mouse mUR2 membranes): − (“−” indicates less than 50% inhibition at 10 μM); A7: inhibition of radioligand binding (Human μ-opioid (MOP); human MOP membranes): − (“−” indicates less than 50% inhibition at 10 μM); A4: inhibition of radioligand binding (Human Melanocortin (MC4); human MC4 membranes): + (“+” indicates greater than 50% inhibition at 10 μM); A10: inhibition of radioligand binding (Human opioid (ORL1); human ORL1 membranes): − (“−” indicates less than 50% inhibition at 10 μM); A6: inhibition of radioligand binding ([2]; [125I]-S36057, human MCH1 membranes): − (“−” indicates less than 50% inhibition at 10 μM) |
| CSC1OC(COCc2ccc3ccccc3c2)C(O)C(OCc2ccccc2)C1NC(=O)CCCN (stereo not shown) [compound 263] | – | – | – | – | – | – | – | – | – | – | – | − (“−” indicates less than 50% inhibition at 10 μM) | − (“−” indicates less than 50% inhibition at 10 μM) | + (“+” indicates greater than 50% inhibition at 10 μM) | − (“−” indicates less than 50% inhibition at 10 μM) | − (“−” indicates less than 50% inhibition at 10 μM) | − (“−” indicates less than 50% inhibition at 10 μM) | − (“−” indicates less than 50% inhibition at 10 μM) | − (“−” indicates less than 50% inhibition at 10 μM) | − (“−” indicates less than 50% inhibition at 10 μM) | A10: inhibition of radioligand binding (Human opioid (ORL1); FlashPlate): − (“−” indicates less than 50% inhibition at 10 μM); A6: inhibition of radioligand binding ([2]; [125I]-S36057, FlashPlate): − (“−” indicates less than 50% inhibition at 10 μM) |
